Patent publication US12421228B2 (Mirati Therapeutics, Inc., priority 2019, dated 2025)

Columns and labels:
[1] = system: PRC2-mediated histone H3 methylation in Pfeiffer cells (EZH2 A677G); assay: Tri-Methyl Histone H3 (Lys 27) sandwich ELISA in Pfeiffer cells; type: cell-based; details: Homo sapiens, 96 hours incubation, H3K27me3 ELISA, read-out: IC50 (nM), Inhibition of EZH2-mediated Histone H3 Trimethylation
Summary of the method: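 Pfeiffer DLBCL cells (EZH2 A677G) exposed to 3-fold serial compound dilutions for 96 h at 37 °C. Acid-extracted (0.4 M HCl), neutralized histones then assayed by sandwich ELISA for H3K27me3 with HRP/TMB readout at 450 nm; potency reported in bins (A ≤100 nM, B >100–≤500 nM, C >500 nM).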

[2] = molecular target: purified human, His-tagged PRC2 complex (Homo sapiens (Human), UniProt O75530); assay: Hot Spot HMT assay, inhibition of PRC2 enzymatic activity; type: biochemical; details: 10 nM PRC2 complex, 0.05 mg/ml core histone H3, 1 μM 3H-SAM, 1 hr at 30° C.; read-out: IC50, Inhibition of PRC2-mediated Enzymatic Activity
Summary of the method: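 Ten-point, three-fold dilution series from 1.0 μM. 10 nM PRC2 with 0.05 mg/ml core histone H3 in pH 8 Tris buffer was pre-incubated 20 min at 30 °C, then reacted with 1 μM [3H]-SAM for 1 hr at 30 °C. Tritiated H3 was captured by filter binding and scintillation-counted; IC50 was taken from the dose-response curve.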

[3] = system: Karpas 422 cells (EZH2 Y641N); assay: Karpas 422 cell viability (Cell Titre Glo); type: cell-based; details: Homo sapiens, CTG viability, Day 4, Day 7 or Day 11 (time point not given), read-out: IC50 (nM), Inhibiting Proliferation of Cells Expressing an Activating Mutant Form of EZH2
Summary of the method: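 Karpas 422 cells (EZH2 Y641N) in RPMI with 20% FBS, 1000 cells/well, exposed to compound from 10 μM in 3-fold dilutions down to 1.5 nM at 37° C. Viability by CellTiter-Glo at Day 4, 7 or 11; Day 11 plates re-fed with fresh medium and compound on Day 7. IC50 per time point.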

Sequence of purified human, His-tagged PRC2 complex (Q15910 whole entry): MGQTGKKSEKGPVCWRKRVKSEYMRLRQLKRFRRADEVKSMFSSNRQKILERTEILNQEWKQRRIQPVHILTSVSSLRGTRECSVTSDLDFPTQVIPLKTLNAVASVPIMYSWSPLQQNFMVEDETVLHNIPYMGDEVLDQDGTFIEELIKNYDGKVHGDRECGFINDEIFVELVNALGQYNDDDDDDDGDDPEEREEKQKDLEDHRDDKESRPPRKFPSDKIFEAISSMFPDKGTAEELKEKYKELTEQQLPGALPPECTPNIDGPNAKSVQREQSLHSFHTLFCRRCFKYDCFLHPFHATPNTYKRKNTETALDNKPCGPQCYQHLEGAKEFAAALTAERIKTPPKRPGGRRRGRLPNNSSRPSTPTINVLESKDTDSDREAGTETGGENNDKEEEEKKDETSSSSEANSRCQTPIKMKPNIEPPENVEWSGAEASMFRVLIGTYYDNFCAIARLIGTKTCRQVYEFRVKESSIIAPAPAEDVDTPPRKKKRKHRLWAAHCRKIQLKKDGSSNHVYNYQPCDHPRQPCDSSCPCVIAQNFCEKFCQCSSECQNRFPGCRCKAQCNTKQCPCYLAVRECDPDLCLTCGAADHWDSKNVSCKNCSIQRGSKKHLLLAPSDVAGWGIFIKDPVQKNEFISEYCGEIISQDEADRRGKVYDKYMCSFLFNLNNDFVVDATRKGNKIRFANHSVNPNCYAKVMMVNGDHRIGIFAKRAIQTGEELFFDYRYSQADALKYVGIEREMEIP
Sequence of purified human, His-tagged PRC2 complex (O75530 whole entry): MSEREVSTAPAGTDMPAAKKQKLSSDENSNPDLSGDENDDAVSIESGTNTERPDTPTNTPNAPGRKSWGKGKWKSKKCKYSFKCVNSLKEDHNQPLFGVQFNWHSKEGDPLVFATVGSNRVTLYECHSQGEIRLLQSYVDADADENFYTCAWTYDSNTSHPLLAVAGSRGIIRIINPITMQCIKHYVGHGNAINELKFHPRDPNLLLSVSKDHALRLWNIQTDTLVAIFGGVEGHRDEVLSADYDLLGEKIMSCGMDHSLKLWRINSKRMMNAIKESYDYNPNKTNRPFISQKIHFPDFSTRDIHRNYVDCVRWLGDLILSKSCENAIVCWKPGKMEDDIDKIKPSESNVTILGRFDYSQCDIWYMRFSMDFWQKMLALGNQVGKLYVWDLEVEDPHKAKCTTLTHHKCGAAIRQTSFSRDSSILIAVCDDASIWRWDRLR
Sequence of purified human, His-tagged PRC2 complex (Q15022 whole entry partner): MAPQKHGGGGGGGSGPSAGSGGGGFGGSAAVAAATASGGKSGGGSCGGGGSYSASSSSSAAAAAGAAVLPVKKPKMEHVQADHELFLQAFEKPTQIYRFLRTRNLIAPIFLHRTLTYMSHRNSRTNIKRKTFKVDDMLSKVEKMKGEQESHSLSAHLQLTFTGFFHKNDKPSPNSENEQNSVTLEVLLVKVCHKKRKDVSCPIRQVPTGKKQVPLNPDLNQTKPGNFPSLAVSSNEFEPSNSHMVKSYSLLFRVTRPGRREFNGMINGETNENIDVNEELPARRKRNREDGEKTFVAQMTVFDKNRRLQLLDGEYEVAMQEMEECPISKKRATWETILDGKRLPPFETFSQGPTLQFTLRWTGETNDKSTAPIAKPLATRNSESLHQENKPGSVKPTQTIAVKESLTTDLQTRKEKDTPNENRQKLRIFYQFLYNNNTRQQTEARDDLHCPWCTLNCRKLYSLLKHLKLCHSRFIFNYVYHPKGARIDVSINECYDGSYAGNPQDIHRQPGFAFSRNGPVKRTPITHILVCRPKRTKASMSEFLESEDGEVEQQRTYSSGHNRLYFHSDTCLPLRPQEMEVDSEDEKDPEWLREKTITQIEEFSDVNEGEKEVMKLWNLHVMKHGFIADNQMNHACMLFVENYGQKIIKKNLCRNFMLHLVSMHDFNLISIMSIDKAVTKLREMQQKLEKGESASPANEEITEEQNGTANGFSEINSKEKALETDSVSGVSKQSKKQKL
Sequence of purified human, His-tagged PRC2 complex (Q6ZN18 whole entry partner): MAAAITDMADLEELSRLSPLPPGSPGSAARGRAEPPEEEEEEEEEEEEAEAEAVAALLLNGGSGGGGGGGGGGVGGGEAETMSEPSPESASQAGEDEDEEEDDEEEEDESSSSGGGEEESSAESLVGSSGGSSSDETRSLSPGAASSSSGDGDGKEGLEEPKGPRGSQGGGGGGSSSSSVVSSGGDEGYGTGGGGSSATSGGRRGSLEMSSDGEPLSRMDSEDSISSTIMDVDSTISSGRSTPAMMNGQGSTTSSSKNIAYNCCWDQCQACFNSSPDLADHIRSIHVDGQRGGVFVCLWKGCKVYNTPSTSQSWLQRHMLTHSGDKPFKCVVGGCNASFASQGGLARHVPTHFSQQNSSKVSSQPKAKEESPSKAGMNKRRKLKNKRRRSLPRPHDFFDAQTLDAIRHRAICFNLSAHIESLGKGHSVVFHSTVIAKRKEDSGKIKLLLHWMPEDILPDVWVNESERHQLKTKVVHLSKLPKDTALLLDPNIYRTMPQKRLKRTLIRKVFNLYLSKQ
Sequence of purified human, His-tagged PRC2 complex (Q09028 whole entry partner): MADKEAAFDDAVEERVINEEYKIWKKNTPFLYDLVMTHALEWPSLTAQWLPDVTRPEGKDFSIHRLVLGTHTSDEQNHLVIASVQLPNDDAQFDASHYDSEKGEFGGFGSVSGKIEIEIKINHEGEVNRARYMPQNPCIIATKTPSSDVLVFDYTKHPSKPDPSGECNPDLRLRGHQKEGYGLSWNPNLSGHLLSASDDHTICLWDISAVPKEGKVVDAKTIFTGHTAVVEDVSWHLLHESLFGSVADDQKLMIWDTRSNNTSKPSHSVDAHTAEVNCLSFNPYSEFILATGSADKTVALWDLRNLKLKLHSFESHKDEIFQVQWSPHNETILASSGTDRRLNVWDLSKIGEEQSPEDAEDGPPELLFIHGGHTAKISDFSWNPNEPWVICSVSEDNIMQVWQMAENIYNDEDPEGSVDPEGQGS

| SMILES | IC50 [1] [nM] | IC50 [2] [nM] | IC50 [3] [nM] |
| --- | --- | --- | --- |
| COc1nccc2c(NCc3c(F)ccc4c3CCO4)ncc(-c3cc(C)nn3C)c12 [Example 54, 4-(1,3-dimethyl-1H-pyrazol-5-yl)-N-((5-fluoro-2,3-dihydrobenzofuran-4-yl)methyl)-5-methoxy-2,6-naphthyridin-1-amine] | > 500 | > 250 | 250 to 500 |
| Cc1cc(-c2cnc(NCc3c(F)ccc4c3CCO4)c3ccncc23)n(C)n1 [Example 56, 4-(1,3-dimethyl-1H-pyrazol-5-yl)-N-((5-fluoro-2,3-dihydrobenzofuran-4-yl)methyl)-2,6-naphthyridin-1-amine] | 100 to 500 | > 250 | > 500 |
| Cc1cc(-c2cnc(NCc3c(F)ccc4c3CCO4)c3nc[nH]c(=O)c23)n(C)n1 [Example 58, 5-(1,3-dimethyl-1H-pyrazol-5-yl)-8-(((5-fluoro-2,3-dihydrobenzofuran-4-yl)methyl)amino)pyrido[3,4-d]pyrimidin-4(3H)-one] | > 500 | > 250 | > 500 |

Second part, the molecule after the results:

| IC50 [1] [nM] | IC50 [2] [nM] | IC50 [3] [nM] | SMILES |
| --- | --- | --- | --- |
| > 500 | > 250 | ≤ 250 | Cc1cc(-c2cnc(NCc3c(F)ccc4c3CCO4)c3cc[nH]c(=O)c23)n(C)n1 [Example 55, 8-(1,3-dimethyl-1H-pyrazol-5-yl)-5-(((5-fluoro-2,3-dihydrobenzofuran-4-yl)methyl)amino)-2,6-naphthyridin-1(2H)-one] |
| > 500 | > 250 | > 500 | COc1ncnc2c(NCc3c(F)ccc4c3CCO4)ncc(-c3cc(C)nn3C)c12 [Example 57, 5-(1,3-dimethyl-1H-pyrazol-5-yl)-N-((5-fluoro-2,3-dihydrobenzofuran-4-yl)methyl)-4-methoxypyrido[3,4-d]pyrimidin-8-amine] |
| > 500 | > 250 | > 500 | Cc1cc(-c2cnc(NCc3c(F)ccc4c3CCO4)c3ncncc23)n(C)n1 [Example 59, 5-(1,3-dimethyl-1H-pyrazol-5-yl)-N-((5-fluoro-2,3-dihydrobenzofuran-4-yl)methyl)pyrido[3,4-d]pyrimidin-8-amine] |
